Assay results: patent US8912141B2, “Treatment of hepatitis C virus” (Panmed Ltd., priority 2011, dated 2014)
“Also recorded” adds a separate entry of the source. Like-named read-outs stand apart in the source and are kept apart here.

Assays:
HCV replicon = HCV replicon antiviral assay in Huh7 cells, HCV RNA by RT-PCR, 72 hours; combinations analysed by Prichard-Shipman / Bliss independence; type: cell-based, hepatitis C virus
Method: Huh7 cells were maintained at 37° C., in an atmosphere of 5% CO2, in DMEM (Dulbecco's modified Eagle medium) supplemented with 2 mM L-glutamine, non-essential amino acids (NEAA), 10% fetal bovine serum (FBS) and […] geneticin. Cells were sub-divided at a 1:3 or 1:4 ratio every 2-3 days. 24 hours prior to the assay, Huh7 cells were collected, counted, plated in 96-well plates at 7,500 cells/well in […] standard maintenance medium, and incubated in the conditions above. To initiate the assay, culture medium was removed, and cells were washed once with PBS (phosphate buffer saline). For control compounds only, […] assay medium (DMEM with L-glutamine, NEAA, and 10% FBS) was added.
Test compounds were prepared as a 10× stock in assay medium. Serial dilutions of compounds in assay medium were added in a total volume of […] and the plates were then rocked to mix, and incubated as described above for 72 hours.
HCV RNA levels were measured using TaqMan® RT-PCR. Total cellular RNA was isolated and amplified by using a RealTime HCV assay (m1000™ Automated Sample Preparation System and M2000rt™ instrument for reverse transcription, PCR amplification, and detection/quantitation, Abbott Molecular Inc.), which detects and quantitates HCV genotypes 1-6. The molecular genotyping method targets the 5′-untranslated (UTR) region of the virus genome and is based on an amplification of the viral genome. […] A negative control, low positive control and high positive control were also introduced. Results are reported in International Units per ml (IU/ml), and 1 IU/ml=4.3 copies/ml. […]
The effects of drug combinations were evaluated according to the method described by Prichard & Shipman [Antiviral Res 1990, 14:181-205]. The theoretical additive effect was calculated from the dose-response curves of individual compounds by the equation Z=X+Y(1−X) (an equation referred to in the art as a Bliss independence model), where X and Y represent the inhibition produced by the individual compounds and Z represents the theoretical effect produced by the combination of compounds. […]

various proteases = assay: Protease inhibition; type: biochemical
[1] = cited from earlier work

C=C[C@@H]1C[C@]1(NC(=O)[C@@H]1C[C@@H](OC(=O)N2Cc3cccc(F)c3C2)CN1C(=O)[C@@H](NC(=O)OC(C)(C)C)C(C)(C)C)C(=O)NS(=O)(=O)C1CC1 [GNS-227]
antiviral activity towards HCV (HCV replicon): an antiviral activity towards HCV | GNS-227 concentration at which synergy was best achieved (HCV replicon; in combination with HCQ): about 3.7 nM | protease inhibition activity (various proteases): exhibit inhibition activity on various proteases; also recorded: exhibit a protease inhibition activity

CCN(CC)CCCC(C)Nc1ccnc2cc(Cl)ccc12 (centres unmarked) [chloroquine]
retinotoxicity relative to hydroxychloroquine ([1]; in vivo): much more retinotoxic

CCN(CCO)CCCC(C)Nc1ccnc2cc(Cl)ccc12 (centres unmarked) [HCQ, 2-[[4-[(7-chloro-4-quinolinyl)amino]pentyl]ethylamino]ethanol]
HCQ concentration at which synergy was best achieved (HCV replicon; in combination with GNS-227): about 6 μM | toxicity relative to chloroquine ([1]; in vivo): less toxic | toxicity relative to chloroquine ([1]; in vivo, listed as hydroxychloroquine): one-half as toxic | effectiveness relative to chloroquine ([1]; treating rheumatologic diseases): one-half to two-thirds as effective as chloroquine
